Assay [1] has as its system HCT-116. Put plainly: Cytotoxicity against human HCT116 cells after 48 hrs by SRB assay. The following applies: HCT-116, 48 h. Type of assay: functional, cell-based. (In general: The SRB assay estimates cell density from bound dye.)
Assay [2] has as its system HT-29. Put plainly: Cytotoxicity against human HT-29 cells after 48 hrs by SRB assay. The settings on record: HT-29, 48 h. The format is functional, cell-based.
Assay [3] has as its system MCF7. Kind of assay: Cytotoxicity against human MCF7 cells after 48 hrs by SRB assay. The format is functional, cell-based. The settings on record: MCF7, 48 h.
Assay [4] has as its system HepG2. Kind of assay: Cytotoxicity against human HepG2 cells after 48 hrs by SRB assay. Type of assay: functional, cell-based. The following applies: HepG2, 48 h.
Assay [5] deals with A549. Put plainly: Cytotoxicity against human A549 cells after 48 hrs by SRB assay. Type of assay: functional, cell-based. The following applies: A549, 48 h.
The test system of assay [6] is HT-1080. Kind of assay: Cytotoxicity against human HT1080 cells after 48 hrs by SRB assay. The format is functional, cell-based. The settings on record: HT-1080, 48 h.
Assay [7] in a line: Cytotoxicity against human L02 cells after 48 hrs by SRB assay. The format is cell-based. The following applies: L02, 48 h.
In assay [8] the test system is HT-1080. Kind of assay: Ratio of (R)-roscovitine IC50 to compound IC50 for human HT1080 cells. Type of assay: functional.
In assay [9] the test system is HepG2. Kind of assay: Ratio of (R)-roscovitine IC50 to compound IC50 for human HepG2 cells. The format is functional.
Assay [10] deals with HCT-116. Put plainly: Ratio of (R)-roscovitine IC50 to compound IC50 for human HCT116 cells. Type of assay: functional.
In assay [11] the test system is HT-29. Kind of assay: Ratio of (R)-roscovitine IC50 to compound IC50 for human HT-29 cells. The format is functional.
In assay [12] the test system is MCF7. Put plainly: Ratio of (R)-roscovitine IC50 to compound IC50 for human MCF7 cells. Type of assay: functional.
Assay [13] relates to A549. Kind of assay: Ratio of (R)-roscovitine IC50 to compound IC50 for human A549 cells. Type of assay: functional.
In assay [14] the target is Cyclin-dependent kinase 1/cyclin B1 (Homo sapiens) (UniProt P06493+P14635). Put plainly: Inhibition of human CDK1/cyclinB at 10 uM. The format is protein-complex assay.
For assay [15], the target named is Cyclin-dependent kinase 2/cyclin A (Homo sapiens) (UniProt P24941+P20248+P78396). Kind of assay: Inhibition of human CDK2/cyclin A at 10 uM. The format is protein-complex assay.
Assay [16] concerns the target Cyclin-dependent kinase 2/cyclin E (Homo sapiens) (UniProt P24864+P24941+O96020). Kind of assay: Inhibition of human CDK2/cyclin E at 10 uM. The format is protein-complex assay.
For assay [17], the target named is Cyclin-dependent kinase 5/CDK5 activator 1 (Homo sapiens) (UniProt Q00535+Q15078). Kind of assay: Inhibition of human CDK5/p25 at 10 uM. Type of assay: protein-complex assay.
Assay [18] concerns the target Cyclin-dependent kinase 7/ cyclin H (Homo sapiens) (UniProt P51946+P50613). Kind of assay: Inhibition of human CDK7/CyclinH/MAT1 at 10 uM. Type of assay: protein-complex assay.
Assay [19] deals with CDK9/cyclin T1 (Homo sapiens) (UniProt O60563+P50750). Put plainly: Inhibition of human CDK9/CyclinT1 at 10 uM. Type of assay: protein-complex assay.
In assay [20] the target is Epidermal growth factor receptor (Homo sapiens) (UniProt P00533). Kind of assay: Inhibition of human EGFR at 10 uM.
The target in assay [21] is Glycogen synthase kinase-3 beta (Homo sapiens) (UniProt P49841). Kind of assay: Inhibition of human GSK3beta at 10 uM.
In assay [22] the target is T1, Aurora kinase A (Homo sapiens) (UniProt O14965).
T1 sequence (whole entry): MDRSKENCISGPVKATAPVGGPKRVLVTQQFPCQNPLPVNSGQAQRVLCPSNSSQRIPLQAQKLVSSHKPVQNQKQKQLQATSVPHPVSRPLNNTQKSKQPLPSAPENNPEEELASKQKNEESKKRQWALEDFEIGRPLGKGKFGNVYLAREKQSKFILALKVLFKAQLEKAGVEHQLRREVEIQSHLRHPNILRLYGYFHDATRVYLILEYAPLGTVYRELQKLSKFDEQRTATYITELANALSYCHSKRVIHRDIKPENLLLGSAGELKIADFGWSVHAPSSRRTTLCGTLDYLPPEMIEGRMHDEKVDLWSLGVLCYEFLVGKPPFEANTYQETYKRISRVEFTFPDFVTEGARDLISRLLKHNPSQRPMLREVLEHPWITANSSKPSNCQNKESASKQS
Put plainly: Inhibition of human Aurora A kinase at 10 uM.

For assay [23], the target named is Aurora kinase B (Homo sapiens) (UniProt Q96GD4). Kind of assay: Inhibition of human Aurora B kinase at 10 uM.
Assay [24] concerns the target Serine/threonine-protein kinase mTOR (Homo sapiens) (UniProt P42345). Put plainly: Inhibition of human mTOR at 10 uM.

What is called IC50 is the midpoint of a concentration-inhibition curve. A lower IC50 goes with inhibition by little substance. As a reminder, the inhibition is the drop in the measured response relative to a control, in per cent. The low end stands for little suppression, the high end for strong suppression.

Sequence of Epidermal growth factor receptor (Homo sapiens) (P00533 whole entry): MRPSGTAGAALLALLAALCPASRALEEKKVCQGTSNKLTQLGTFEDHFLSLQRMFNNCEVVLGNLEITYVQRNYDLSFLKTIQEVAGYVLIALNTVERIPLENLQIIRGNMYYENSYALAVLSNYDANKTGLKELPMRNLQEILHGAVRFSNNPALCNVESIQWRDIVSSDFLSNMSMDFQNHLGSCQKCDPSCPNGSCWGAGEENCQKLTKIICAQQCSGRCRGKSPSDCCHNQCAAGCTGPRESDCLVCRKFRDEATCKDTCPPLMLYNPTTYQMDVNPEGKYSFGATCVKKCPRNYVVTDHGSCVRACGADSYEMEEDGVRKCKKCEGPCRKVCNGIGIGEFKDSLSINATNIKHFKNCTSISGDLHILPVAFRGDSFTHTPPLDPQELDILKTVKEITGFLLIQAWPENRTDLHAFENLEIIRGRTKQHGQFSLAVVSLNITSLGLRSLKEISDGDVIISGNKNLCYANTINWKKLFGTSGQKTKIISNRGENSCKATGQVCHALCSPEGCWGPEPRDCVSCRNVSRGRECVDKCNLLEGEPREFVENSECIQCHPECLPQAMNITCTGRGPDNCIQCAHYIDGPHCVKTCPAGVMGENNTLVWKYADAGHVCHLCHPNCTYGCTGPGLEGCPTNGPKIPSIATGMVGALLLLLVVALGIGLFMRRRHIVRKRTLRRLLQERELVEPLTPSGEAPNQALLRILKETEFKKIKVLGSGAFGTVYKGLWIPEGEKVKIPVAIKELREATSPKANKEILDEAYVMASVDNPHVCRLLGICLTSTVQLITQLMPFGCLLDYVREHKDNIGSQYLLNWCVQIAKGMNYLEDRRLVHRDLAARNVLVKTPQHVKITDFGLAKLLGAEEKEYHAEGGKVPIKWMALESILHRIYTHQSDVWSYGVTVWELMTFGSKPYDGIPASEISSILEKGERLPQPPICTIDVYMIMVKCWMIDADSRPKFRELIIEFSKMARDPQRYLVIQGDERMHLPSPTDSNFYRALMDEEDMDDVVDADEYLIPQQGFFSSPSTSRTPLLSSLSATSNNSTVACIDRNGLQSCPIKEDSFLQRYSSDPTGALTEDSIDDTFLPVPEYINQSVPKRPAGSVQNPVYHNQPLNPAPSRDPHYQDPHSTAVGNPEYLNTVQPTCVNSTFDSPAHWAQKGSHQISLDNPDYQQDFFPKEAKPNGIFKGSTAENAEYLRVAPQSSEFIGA
Sequence of Cyclin-dependent kinase 5/CDK5 activator 1 (Homo sapiens) (Q00535 whole entry): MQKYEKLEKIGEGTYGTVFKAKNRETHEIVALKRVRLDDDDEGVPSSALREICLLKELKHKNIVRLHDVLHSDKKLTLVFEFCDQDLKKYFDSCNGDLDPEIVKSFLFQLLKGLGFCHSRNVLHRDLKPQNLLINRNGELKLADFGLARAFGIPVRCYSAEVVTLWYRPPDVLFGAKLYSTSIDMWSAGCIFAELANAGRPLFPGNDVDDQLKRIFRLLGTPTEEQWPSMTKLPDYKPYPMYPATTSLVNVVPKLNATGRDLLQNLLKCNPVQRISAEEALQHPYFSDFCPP
Sequence of Cyclin-dependent kinase 5/CDK5 activator 1 (Homo sapiens) (Q15078 99-307 partner limits assumed): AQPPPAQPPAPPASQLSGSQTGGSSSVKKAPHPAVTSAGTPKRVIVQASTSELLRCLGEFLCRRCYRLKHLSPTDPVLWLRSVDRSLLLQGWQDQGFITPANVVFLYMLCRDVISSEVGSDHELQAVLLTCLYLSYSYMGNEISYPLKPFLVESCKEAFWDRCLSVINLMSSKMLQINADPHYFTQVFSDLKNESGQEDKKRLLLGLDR
Sequence of Cyclin-dependent kinase 1/cyclin B1 (Homo sapiens) (P06493 whole entry, looked up): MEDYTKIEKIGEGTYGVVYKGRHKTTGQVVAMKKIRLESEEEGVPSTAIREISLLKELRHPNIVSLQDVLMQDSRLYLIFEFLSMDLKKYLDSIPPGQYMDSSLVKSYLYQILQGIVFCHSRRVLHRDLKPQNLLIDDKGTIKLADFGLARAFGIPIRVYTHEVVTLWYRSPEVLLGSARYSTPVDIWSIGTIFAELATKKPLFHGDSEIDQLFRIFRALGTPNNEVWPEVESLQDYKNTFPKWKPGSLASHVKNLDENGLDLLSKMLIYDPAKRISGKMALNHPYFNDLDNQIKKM
Sequence of Cyclin-dependent kinase 1/cyclin B1 (Homo sapiens) (P14635 whole entry, looked up): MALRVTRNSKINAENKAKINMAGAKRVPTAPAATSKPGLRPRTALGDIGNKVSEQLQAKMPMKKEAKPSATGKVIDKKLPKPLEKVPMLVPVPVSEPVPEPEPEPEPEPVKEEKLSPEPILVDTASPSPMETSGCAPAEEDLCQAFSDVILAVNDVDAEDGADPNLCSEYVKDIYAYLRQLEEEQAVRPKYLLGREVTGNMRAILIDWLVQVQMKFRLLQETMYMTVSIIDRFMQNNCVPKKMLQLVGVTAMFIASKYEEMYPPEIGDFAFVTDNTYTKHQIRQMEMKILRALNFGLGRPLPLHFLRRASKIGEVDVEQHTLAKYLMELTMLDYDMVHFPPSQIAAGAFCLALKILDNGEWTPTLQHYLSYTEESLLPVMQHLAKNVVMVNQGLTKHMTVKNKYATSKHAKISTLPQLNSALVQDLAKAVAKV
Sequence of Glycogen synthase kinase-3 beta (Homo sapiens) (P49841 whole entry, looked up): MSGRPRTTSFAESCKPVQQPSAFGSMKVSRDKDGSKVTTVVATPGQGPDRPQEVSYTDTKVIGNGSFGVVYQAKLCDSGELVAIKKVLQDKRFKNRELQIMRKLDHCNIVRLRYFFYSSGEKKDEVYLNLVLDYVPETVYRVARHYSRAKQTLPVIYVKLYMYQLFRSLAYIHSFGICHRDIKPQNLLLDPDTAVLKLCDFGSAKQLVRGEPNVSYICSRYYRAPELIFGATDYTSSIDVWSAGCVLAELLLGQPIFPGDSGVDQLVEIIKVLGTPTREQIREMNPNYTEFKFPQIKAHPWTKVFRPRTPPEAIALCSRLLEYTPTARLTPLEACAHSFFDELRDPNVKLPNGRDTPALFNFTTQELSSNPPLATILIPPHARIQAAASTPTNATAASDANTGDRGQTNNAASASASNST
Sequence of Aurora kinase B (Homo sapiens) (Q96GD4 whole entry): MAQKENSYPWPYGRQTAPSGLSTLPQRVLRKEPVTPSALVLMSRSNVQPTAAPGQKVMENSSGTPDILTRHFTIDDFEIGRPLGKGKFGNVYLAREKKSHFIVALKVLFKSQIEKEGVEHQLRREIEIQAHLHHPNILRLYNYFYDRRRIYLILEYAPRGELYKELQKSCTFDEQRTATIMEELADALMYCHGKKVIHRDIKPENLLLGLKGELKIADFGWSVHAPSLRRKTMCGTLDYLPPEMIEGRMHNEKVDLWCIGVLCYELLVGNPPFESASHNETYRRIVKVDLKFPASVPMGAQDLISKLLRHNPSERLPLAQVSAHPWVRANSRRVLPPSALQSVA

In the assay with HCT-116 [1], `CCCCNC(=O)N1Cc2c(NC(=O)c3ccccc3)nn(C(=O)C3CC3)c2C1` showed an IC50 of 3.47 µM.
On the same count and under the same terms, next, `O=C(Nc1nn(C(=O)C2CC2)c2c1CN(C(=O)c1ccccc1)C2)c1ccccc1`: 1.24 µM; `O=C(Nc1nn(C(=O)C2CC2)c2c1CN(C(=O)c1ccccc1)C2)c1ccc(F)cc1`: 2.28 µM; `CCCCNC(=O)N1Cc2c(NC(=O)c3ccc(C)cc3)nn(C(=O)c3ccccc3)c2C1`: 23.2 µM.
The same measure, in the same setting: then `CCCCNC(=O)N1Cc2c(NC(=O)c3ccc(C)cc3)nn(C(=O)C3CC3)c2C1`, with 17.6 µM.
Still for that read-out and setting: then `COc1ccc(C(=O)Nc2n[nH]c3c2CN(C(=O)c2ccccc2)C3)cc1`, with 13.6 µM; and `O=C(Nc1nn(C(=O)c2ccccc2)c2c1CN(C(=O)c1ccccc1)C2)c1ccc(F)cc1`, with 2.78 µM; and `CC(=O)n1nc(NC(=O)c2ccccc2)c2c1CN(S(=O)(=O)c1ccc([N+](=O)[O-])cc1)C2`, with 22.3 µM.
As to `CC(=O)n1nc(NC(=O)c2ccccc2)c2c1CN(C(=O)c1ccc([N+](=O)[O-])cc1)C2`, the half-maximal inhibitory concentration (IC50) in the assay on HCT-116 [1] worked out at 16.2 µM.
Still for that read-out and setting: next, `O=C(Nc1nn(C(=O)Cc2ccccc2)c2c1CN(C(=O)c1ccccc1)C2)c1ccccc1`: 2.61 µM; `CC(=O)n1nc(NC(=O)c2ccccc2)c2c1CN(C(=O)c1cccc([N+](=O)[O-])c1)C2`: 17.3 µM.
On the same count and under the same terms, then `CC(=O)n1nc(NC(=O)c2ccccc2)c2c1CN(C(=O)c1ccncc1)C2`, with 10 µM; and `O=C(Nc1n[nH]c2c1CN(C(=O)c1ccccc1)C2)c1ccccc1`, with 6.4 µM.
For the compound `CC(=O)n1nc(NC(=O)c2ccccc2)c2c1CN(C(=O)c1ccccc1)C2`, the IC50 with HCT-116 [1] amounted to 0.58 µM; with HT-29 [2], 0.92 µM; in the assay with MCF7 [3] it was 0.99 µM; in the assay with HepG2 [4], 0.81 µM; with A549 [5], 1.74 µM; with HT-1080 [6], 2.13 µM. In assay [7], this compound had a half-maximal inhibitory concentration (IC50) of 2.22 µM. For the same compound, the “Ratio IC50” value in the assay on HT-1080 [8] is 4; in the assay with HepG2 [9] it was 4; with HCT-116 [10], 28; in the assay with HT-29 [11], 4; in the assay on MCF7 [12], 4; in the assay with A549 [13], 4. The inhibition was 30% in [14]; 17% in assay [15]; 30% in assay [16]; 72% in assay [17]; 5% in assay [18]; 10% in assay [19]. The inhibition worked out at 8% in assay [20]; 67% in assay [21]; 33% in assay [22]; 32% in assay [23]; 3% in [24].
In the case of `CCCCNC(=O)N1Cc2c(NC(=O)Cc3ccccc3)nn(C(=O)c3ccccc3)c2C1`, the IC50 with HCT-116 [1] turned out to be 43.1 µM.
Take `CC(=O)n1nc(NC(=O)c2ccccc2)c2c1CN(C(=O)c1ccc(-c3ccccc3)cc1)C2`: the IC50 with HCT-116 [1] is greater than 90 µM.
Same read-out and setting: next, `CC(C)C(=O)n1nc(NC(=O)c2ccccc2)c2c1CN(C(=O)c1ccccc1)C2`: 2.02 µM.
The same measure, in the same setting: then `O=C(Nc1n[nH]c2c1CN(C(=O)c1ccccc1)C2)c1ccc(F)cc1`, with 3.19 µM; and `CCCCNC(=O)N1Cc2c(NC(=O)c3ccc(OC)cc3)nn(C(=O)c3ccccc3)c2C1`, with 25.3 µM.
The same measure, in the same setting: then `CCCCNC(=O)N1Cc2c(NC(=O)c3ccccc3)nn(C(=O)c3ccccc3)c2C1`, with 7.47 µM; and `CCCCNC(=O)N1Cc2c(NC(=O)c3ccc(F)cc3)nn(C(=O)c3ccccc3)c2C1`, with 30.8 µM.
As to `CC[C@H](CO)Nc1nc(NCc2ccccc2)c2ncn(C(C)C)c2n1` [SELICICLIB], the concentration for half-maximal inhibition (IC50) was found to be 16.4 µM in the assay with HCT-116 [1]; 11.6 µM in the assay on HT-29 [2]; 12.2 µM in the assay with MCF7 [3]; 15.5 µM in the assay with HepG2 [4]; 14.1 µM in the assay with A549 [5]; 9.62 µM with HT-1080 [6]. For the same compound, the IC50 in assay [7] amounted to 20.5 µM.
Turning to `CC(=O)n1nc(NC(=O)c2ccccc2)c2c1CN(C(=O)c1cccc(F)c1)C2`, the IC50 in the assay on HCT-116 [1] is 21.9 µM.
The same measure, in the same setting: then `O=C(Nc1nn(C(=O)c2ccccc2)c2c1CN(C(=O)c1ccccc1)C2)c1ccccc1`, with 1.4 µM; and `CCCCNC(=O)N1Cc2c(NC(=O)Cc3ccccc3)nn(C(=O)C3CC3)c2C1`, with 31.2 µM; and `CC(=O)n1nc(NC(=O)c2ccccc2)c2c1CN(C(=O)c1cccc(Cl)c1)C2`, with 17.4 µM.
Same read-out and setting: then `COc1ccc(C(=O)Nc2nn(C(=O)C3CC3)c3c2CN(C(=O)c2ccccc2)C3)cc1`, with 5.18 µM.
Compound `CC(=O)n1nc(NC(=O)c2ccccc2)c2c1CN(C(=O)C1CCC(C)CC1)C2` (stereo not drawn) yielded an IC50 in the assay on HCT-116 [1] of 12.2 µM.
Consider `COc1ccc(C(=O)Nc2nn(C(=O)c3ccccc3)c3c2CN(C(=O)c2ccccc2)C3)cc1`, for which, in the assay on HCT-116 [1], the IC50 came out at 31.3 µM.
Regarding `CC(=O)n1nc(NC(=O)c2ccccc2)c2c1CN(S(=O)(=O)N(C)C)C2`, the IC50 in the assay with HCT-116 [1] is 35.3 µM.
On the same count and under the same terms, next, `CCCCNC(=O)N1Cc2c(NC(=O)c3ccc(OC)cc3)nn(C(=O)C3CC3)c2C1`: 65.5 µM.
With `CCC(=O)n1nc(NC(=O)c2ccccc2)c2c1CN(C(=O)c1ccccc1)C2`, the IC50 with HCT-116 [1] amounted to 1.06 µM; with HT-29 [2], 0.91 µM; in the assay on MCF7 [3], 1.07 µM; in the assay with HepG2 [4] it was 0.86 µM; in [7], 2.47 µM.
The compound `CC(=O)n1nc(NC(=O)c2ccccc2)c2c1CN(C(=O)N(C)C)C2` returned an IC50 with HCT-116 [1] of 70.3 µM.
The compound `CC(=O)n1nc(NC(=O)c2ccccc2)c2c1CN(C(=O)CCl)C2` yielded a half-maximal inhibitory concentration (IC50) in the assay with HCT-116 [1] of 4.1 µM.
On the same count and under the same terms, then `CCCCNC(=O)N1Cc2c(NC(=O)c3ccc(F)cc3)nn(C(=O)C3CC3)c2C1`, with 23.2 µM.

These data come from ChEMBL document CHEMBL2157955, “Design, synthesis and anticancer activity of 1-acyl-3-amino-1,4,5,6-tetrahydropyrrolo[3,4-c]pyrazole derivatives” (Bioorg Med Chem Lett, 2012).
